Experimental data published in US10428087B2, “Pyrimidinones as PI3K inhibitors” (Incyte Corporation, priority 2009, dated 2019).
Counter-ions that a name gives are not always drawn.

system: Pfeiffer cell line (diffuse large B cell lymphoma); assay: Pfeiffer cell proliferation assay (Example B2); type: cell-based; settings: Homo sapiens, Pfeiffer, Pfeiffer cells, [3H]-thymidine
Description: Pfeiffer cell line (diffuse large B cell lymphoma) was purchased from ATCC (Manassas, Va.) and maintained in the culture medium recommended (RPMI and 10% FBS). To measure the anti-proliferation activity of the PI3Kδ submittals, the Pfeiffer cells were plated with the culture medium (2×10^3 cells/well/per 200 μl) into 96-well ultra-low binding plates (Corning, Corning, N.Y.), in the presence or absence of a concentration range of test compounds. After 3-4 days, [^3H]-thymidine (1 μCi/well) (PerkinElmer, Boston, Mass.) in PBS was then added to the cell culture for an additional 12 hrs before the incorporated radioactivity was separated by filtration with water through GF/B filters (Packard Bioscience, Meridenj, Conn.) and measured by liquid scintillation counting with a TopCount (Packard Bioscience). See Table 3 for data related to compounds of the invention.

Compound | IC50 [nM]
CC(Nc1ncnc2[nH]cnc12)c1nc2sccn2c(=O)c1-c1cc(F)cc(F)c1 (stereo not shown) [Example 25, 6-(3,5-difluorophenyl)-7-[1-(9H-purin-6-ylamino)ethyl]-5H-[1,3]thiazolo[3,2-a]pyrimidin-5-one] | 500 to 1000
Cc1csc2nc(C(C)Nc3ncnc4[nH]cnc34)c(-c3ccccc3F)c(=O)n12 (stereo not shown) [Example 40, 6-(2-fluorophenyl)-3-methyl-7-[1-(9H-purin-6-ylamino)ethyl]-5H-[1,3]thiazolo[3,2-a]pyrimidin-5-one trifluoroacetic acid salt] | 50 to 100
Cc1cccc(-c2c(C(C)Nc3ncnc4[nH]cnc34)nc3cccc(C)n3c2=O)c1 (stereo not shown) [Example 51, 6-Methyl-3-(3-methylphenyl)-2-[1-(9H-purin-6-ylamino)ethyl]-4H-pyrido[1,2-a]pyrimidin-4-one trifluoroacetic acid salt] | 100 to 500
Cc1cccc2nc(C(C)Nc3nc(N)nc4[nH]cnc34)c(-c3cccc(C#N)c3)c(=O)n12 (stereo not shown) [Example 84, 3-(2-{1-[(2-Amino-9H-purin-6-yl)amino]ethyl}-6-methyl-4-oxo-4H-pyrido[1,2-a]pyrimidin-3-yl)benzonitrile trifluoroacetic acid salt] | 100 to 500
Cc1cccc2nc(C(C)Nc3ncnc4[nH]cnc34)c(-c3ccccc3F)c(=O)n12 (stereo not shown) [Example 59, 3-(2-Fluorophenyl)-6-methyl-2-[1-(9H-purin-6-ylamino)ethyl]-4H-pyrido[1,2-a]pyrimidin-4-one trifluoroacetic acid salt] | 100 to 500
Cc1csc2nc(C(C)Nc3ncnc4[nH]cnc34)c(-c3cscn3)c(=O)n12 (stereo not shown) [Example 21, 3-methyl-7-[1-(9H-purin-6-ylamino)ethyl]-6-(1,3-thiazol-4-yl)-5H-[1,3]thiazolo[3,2-a]pyrimidin-5-one trifluoroacetic acid salt] | 50 to 100
Cc1cccc2nc(C(C)Nc3ncnc4[nH]cnc34)c(-c3ccc(F)c(F)c3)c(=O)n12 (stereo not shown) [Example 68, 3-(3,4-Difluorophenyl)-6-methyl-2-[1-(9H-purin-6-ylamino)ethyl]-4H-pyrido[1,2-a]pyrimidin-4-one trifluoroacetic acid salt] | 500 to 1000
Cc1cccc2nc(C(C)Nc3ncnc4[nH]cnc34)c(-c3cccc(C#N)c3)c(=O)n12 (stereo not shown) [Example 83, 3-{6-Methyl-4-oxo-2-[1-(9H-purin-6-ylamino)ethyl]-4H-pyrido[1,2-a]pyrimidin-3-yl}benzonitrile trifluoroacetic acid salt] | 100 to 500
CC(Nc1nc(N)nc2[nH]cnc12)c1nc2sccn2c(=O)c1-c1ccccc1 (stereo not shown) [Example 27, 7-{1-[(2-amino-9H-purin-6-yl)amino]ethyl}-6-phenyl-5H-[1,3]thiazolo[3,2-a]pyrimidin-5-one] | 100 to 500
Cc1cccc2nc(C(C)Nc3ncnc4[nH]cnc34)c(-c3cccc(Cl)c3)c(=O)n12 (stereo not shown) [Example 53, 3-(3-Chlorophenyl)-6-methyl-2-[1-(9H-purin-6-ylamino)ethyl]-4H-pyrido[1,2-a]pyrimidin-4-one trifluoroacetic acid salt] | 50 to 100
Cc1cccc2nc(C(C)Nc3nc(N)nc4[nH]cnc34)c(-c3ccccc3F)c(=O)n12 (stereo not shown) [Example 60, 2-{1-[(2-Amino-9H-purin-6-yl)amino]ethyl}-3-(2-fluorophenyl)-6-methyl-4H-pyrido[1,2-a]pyrimidin-4-one trifluoroacetic acid salt] | 50 to 100
Cc1cccc(-c2c(C(C)Nc3nc(N)nc4[nH]cnc34)nc3cccc(C)n3c2=O)c1 (stereo not shown) [Example 52, 2-{1-[(2-Amino-9H-purin-6-yl)amino]ethyl}-6-methyl-3-(3-methylphenyl)-4H-pyrido[1,2-a]pyrimidin-4-one trifluoroacetic acid salt] | 50 to 100
CC(Nc1ncnc2[nH]cnc12)c1nc2scc(C(F)(F)F)n2c(=O)c1-c1cccc(F)c1 (stereo not shown) [Example 48, 6-(3-Fluorophenyl)-7-[1-(9H-purin-6-ylamino)ethyl]-3-(trifluoromethyl)-5H-[1,3]thiazolo[3,2-a]pyrimidin-5-one] | 50 to 100
Cc1cccc2nc(C(C)Nc3ncnc4[nH]cnc34)c(-c3cccc(F)c3F)c(=O)n12 (stereo not shown) [Example 66, 3-(2,3-Difluorophenyl)-6-methyl-2-[1-(9H-purin-6-ylamino)ethyl]-4H-pyrido[1,2-a]pyrimidin-4-one trifluoroacetic acid salt] | 100 to 500
CCc1cccc2nc(C(C)Nc3ncnc4[nH]cnc34)c(-c3cc(F)cc(F)c3)c(=O)n12 (stereo not shown) [Example 76, 3-(3,5-Difluorophenyl)-6-ethyl-2-[1-(9H-purin-6-ylamino)ethyl]-4H-pyrido[1,2-a]pyrimidin-4-one trifluoroacetic acid salt] | 100 to 500
Cc1cccc2nc(C(C)Nc3ncnc4[nH]cnc34)c(-c3ccccc3)c(=O)n12 (stereo not shown) [Example 49, 6-Methyl-3-phenyl-2-[1-(9H-purin-6-ylamino)ethyl]-4H-pyrido[1,2-a]pyrimidin-4-one trifluoroacetic acid salt] | 50 to 100
COc1cccc(-c2c(C(C)Nc3ncnc4[nH]cnc34)nc3cccc(C)n3c2=O)c1 (stereo not shown) [Example 65, 3-(3-Methoxyphenyl)-6-methyl-2-[1-(9H-purin-6-ylamino)ethyl]-4H-pyrido[1,2-a]pyrimidin-4-one trifluoroacetic acid salt] | 50 to 100
Cc1csc2nc(C(C)Nc3ncnc4[nH]cnc34)c(-c3ccncc3)c(=O)n12 (stereo not shown) [Example 19, 3-methyl-7-[1-(9H-purin-6-ylamino)ethyl]-6-pyridin-4-yl-5H-[1,3]thiazolo[3,2-a]pyrimidin-5-one] | > 1000
Cc1cccc2nc(C(C)Nc3ncnc4[nH]cnc34)c(-c3ccccc3Cl)c(=O)n12 (stereo not shown) [Example 57, 3-(2-Chlorophenyl)-6-methyl-2-[1-(9H-purin-6-ylamino)ethyl]-4H-pyrido[1,2-a]pyrimidin-4-one trifluoroacetic acid salt] | 50 to 100

Results, then the compound that gave them:

IC50 [nM] | Compound
100 to 500 | Cc1csc2nc(C(C)Nc3ncnc4[nH]cnc34)c(-c3cc(F)cc(F)c3)c(=O)n12 (stereo not shown) [Example 12, 6-(3,5-difluorophenyl)-3-methyl-7-[1-(9H-purin-6-ylamino)ethyl]-5H-[1,3]thiazolo[3,2-a]pyrimidin-5-one]
50 to 100 | Cc1csc2nc(C(C)Nc3ncnc4[nH]cnc34)c(-c3cccc(F)c3F)c(=O)n12 (stereo not shown) [Example 41, 6-(2,3-difluorophenyl)-3-methyl-7-[1-(9H-purin-6-ylamino)ethyl]-5H-[1,3]thiazolo[3,2-a]pyrimidin-5-one trifluoroacetic acid salt]
50 to 100 | Cc1csc2nc(C(C)Nc3ncnc4[nH]cnc34)c(-c3cccc(Cl)c3)c(=O)n12 (stereo not shown) [Example 36, 6-(3-chlorophenyl)-3-methyl-7-[1-(9H-purin-6-ylamino)ethyl]-5H-[1,3]thiazolo[3,2-a]pyrimidin-5-one trifluoroacetic acid salt]
< 50 | Cc1csc2nc(C(C)Nc3nc(N)nc4[nH]cnc34)c(-c3cc(F)cc(Cl)c3)c(=O)n12 (stereo not shown) [Example 35, 7-{1-[(2-amino-9H-purin-6-yl)amino]ethyl}-6-(3-chloro-5-fluorophenyl)-3-methyl-5H-[1,3]thiazolo[3,2-a]pyrimidin-5-one trifluoroacetic acid salt]
100 to 500 | Cc1csc2nc(C(C)Nc3ncnc4[nH]cnc34)c(-c3cncc(F)c3)c(=O)n12 (stereo not shown) [Example 42, 6-(5-fluoropyridin-3-yl)-3-methyl-7-[1-(9H-purin-6-ylamino)ethyl]-5H-[1,3]thiazolo[3,2-a]pyrimidin-5-one trifluoroacetic acid salt]
50 to 100 | Cc1csc2nc(C(C)Nc3nc(F)nc4[nH]cnc34)c(-c3cc(F)cc(F)c3)c(=O)n12 (stereo not shown) [Example 18, 6-(3,5-difluorophenyl)-7-{1-[(2-fluoro-9H-purin-6-yl)amino]ethyl}-3-methyl-5H-[1,3]thiazolo[3,2-a]pyrimidin-5-one]
100 to 500 | Cc1csc2nc([C@H](C)Nc3ncnc4[nH]ccc34)c(-c3cc(F)cc(F)c3)c(=O)n12 [Example 17, 6-(3,5-difluorophenyl)-3-methyl-7-[1-(7H-pyrrolo[2,3-d]pyrimidin-4-ylamino)ethyl]-5H-[1,3]thiazolo[3,2-a]pyrimidin-5-one]
< 50 | Cc1csc2nc(C(C)Nc3nc(N)nc4[nH]cnc34)c(-c3cccc(Cl)c3)c(=O)n12 (stereo not shown) [Example 32, 7-{1-[(2-amino-9H-purin-6-yl)amino]ethyl}-6-(3-chlorophenyl)-3-methyl-5H-[1,3]thiazolo[3,2-a]pyrimidin-5-one trifluoroacetic acid salt]
50 to 100 | Cc1csc2nc(C(C)Nc3nc(N)nc4[nH]cnc34)c(-c3cncc(F)c3)c(=O)n12 (stereo not shown) [Example 38, 7-{1-[(2-amino-9H-purin-6-yl)amino]ethyl}-6-(5-fluoropyridin-3-yl)-3-methyl-5H-[1,3]thiazolo[3,2-a]pyrimidin-5-one trifluoroacetic acid salt]
< 50 | Cc1csc2nc([C@H](C)Nc3ccnc4[nH]cnc34)c(-c3cccc(F)c3)c(=O)n12 [Example 46, 6-(3-Fluorophenyl)-7-[(1S)-1-(3H-imidazo[4,5-b]pyridin-7-ylamino)ethyl]-3-methyl-5H-[1,3]thiazolo[3,2-a]pyrimidin-5-one]
100 to 500 | CC(Nc1nc(N)nc2[nH]cnc12)c1nc2ccccn2c(=O)c1-c1cc(F)cc(F)c1 (stereo not shown) [Example 80, 2-{1-[(2-Amino-9H-purin-6-yl)amino]ethyl}-3-(3,5-difluorophenyl)-4H-pyrido[1,2-a]pyrimidin-4-one trifluoroacetic acid salt]
50 to 100 | Cc1csc2nc(C(C)Nc3ncnc4[nH]cnc34)c(-c3cc(F)cc(Cl)c3)c(=O)n12 (stereo not shown) [Example 37, 6-(3-chloro-5-fluorophenyl)-3-methyl-7-[1-(9H-purin-6-ylamino)ethyl]-5H-[1,3]thiazolo[3,2-a]pyrimidin-5-one trifluoroacetic acid salt]
